# From patent US9896439B2, “Pyrazole-substituted arylamides as P2X3 and P2X2/3 antagonists” (Roche Palo Alto LLC, priority 2007, dated 2018)
# Assays:
# rat P2X3 receptor = target: T1, rat P2X3 receptor (Rattus norvegicus, UniProt P49654); experiment: P2X3 FLIPR (Fluorometric Imaging Plate Reader) assay; format: cell-based; conditions: CHO-K1 cells transfected with cloned rat P2X3; agonist α,β-meATP 1 μM; Fluo-3 AM fluorescence; read-out: pIC50 for the P2X3 receptor (converted)
# T1 construct: expressed in transfected cells; host or cells: CHO-K1
# T1 sequence (P49654 1-397): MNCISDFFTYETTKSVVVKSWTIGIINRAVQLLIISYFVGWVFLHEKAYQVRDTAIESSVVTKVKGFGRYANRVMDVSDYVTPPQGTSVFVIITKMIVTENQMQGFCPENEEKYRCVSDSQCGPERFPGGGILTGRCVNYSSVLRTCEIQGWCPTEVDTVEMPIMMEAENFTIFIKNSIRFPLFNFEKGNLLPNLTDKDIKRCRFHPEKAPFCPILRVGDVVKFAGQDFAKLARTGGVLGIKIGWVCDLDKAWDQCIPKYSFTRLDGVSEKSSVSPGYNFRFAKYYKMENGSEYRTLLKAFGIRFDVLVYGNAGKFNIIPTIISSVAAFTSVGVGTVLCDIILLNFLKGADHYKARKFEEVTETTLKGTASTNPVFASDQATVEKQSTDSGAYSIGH
# Experimental: (§1) CHO-K1 cells were transfected with cloned rat P2X3 or human P2X2/3 receptor subunits and passaged in flasks. 18-24 hours before the FLIPR experiment, cells were released from their flasks, centrifuged, and resuspended in nutrient medium at 2.5×10^5 cells/ml. The cells were aliquoted into black-walled 96-well plates at a density of 50,000 cells/well and incubated overnight in 5% CO2 at 37° C. On the day of the experiment, cells were washed in FLIPR buffer (calcium- and magnesium-free Hank's balanced salt solution, 10 mM HEPES, 2 mM CaCl2, 2.5 mM probenecid; FB). Each well received 100 μl FB and 100 μl of the fluorescent dye Fluo-3 AM [2 μM final conc.]. […]
# (§2) Test compounds (dissolved in DMSO at 10 mM and serially diluted with FB) or vehicle were added to each well (25 μl of a 4× solution) and allowed to equilibrate for 20 minutes at room temperature. The plates were then placed in the FLIPR and a baseline fluorescence measurement (excitation at 488 nm and emission at 510-570 nm) was obtained for 10 seconds before a 100 μl/well agonist or vehicle addition. […] Fluorescence was measured for an additional 2 minutes at 1 second intervals after agonist addition. A final addition of ionomycin (5 μM, final concentration) was made to each well of the FLIPR test plate to establish cell viability and maximum fluorescence of dye-bound cytosolic calcium. […]
# human P2X2/3 receptor = target: T2, human P2X2/3 receptor (Homo sapiens, UniProt P56373+Q9UBL9); experiment: P2X2/3 FLIPR (Fluorometric Imaging Plate Reader) assay; format: cell-based; conditions: CHO-K1 cells transfected with human P2X2/3; agonist α,β-meATP 5 μM; Fluo-3 AM fluorescence; read-out: pKi for the P2X2/3 receptor (converted)
# T2 construct: expressed in transfected cells; host or cells: CHO-K1
# T2 sequence (Q9UBL9 1-471): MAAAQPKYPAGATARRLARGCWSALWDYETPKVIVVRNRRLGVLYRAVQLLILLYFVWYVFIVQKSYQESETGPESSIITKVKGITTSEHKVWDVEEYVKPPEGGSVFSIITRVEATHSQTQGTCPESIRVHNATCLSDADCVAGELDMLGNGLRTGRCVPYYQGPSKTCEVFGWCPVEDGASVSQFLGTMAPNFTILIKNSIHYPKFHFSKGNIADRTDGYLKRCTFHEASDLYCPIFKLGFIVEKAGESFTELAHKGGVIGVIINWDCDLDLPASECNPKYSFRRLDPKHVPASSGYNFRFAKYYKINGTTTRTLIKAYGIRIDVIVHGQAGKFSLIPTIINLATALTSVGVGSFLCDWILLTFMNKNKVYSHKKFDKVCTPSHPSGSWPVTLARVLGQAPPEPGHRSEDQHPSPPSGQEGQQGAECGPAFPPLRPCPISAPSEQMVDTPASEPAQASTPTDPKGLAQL
# T2 sequence (P56373 1-397): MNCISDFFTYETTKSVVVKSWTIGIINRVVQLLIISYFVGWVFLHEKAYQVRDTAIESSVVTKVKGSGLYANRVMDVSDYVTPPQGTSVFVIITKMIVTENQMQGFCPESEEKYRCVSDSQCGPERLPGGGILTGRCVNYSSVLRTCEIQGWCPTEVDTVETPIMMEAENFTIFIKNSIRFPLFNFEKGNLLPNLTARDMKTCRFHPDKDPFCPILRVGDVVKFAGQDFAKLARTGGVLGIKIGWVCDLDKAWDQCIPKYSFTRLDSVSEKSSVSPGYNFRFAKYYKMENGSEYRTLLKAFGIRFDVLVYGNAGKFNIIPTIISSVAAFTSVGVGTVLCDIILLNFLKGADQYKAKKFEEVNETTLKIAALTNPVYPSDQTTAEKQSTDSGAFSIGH
# Experimental: as §1, §2
IC50 (rat P2X3 receptor) [nM],Ki (human P2X2/3 receptor) [nM],Compound
~2.14,–,"Cc1ccc(-c2cc(C(=O)N[C@@H](C)CO)cc(-c3ccnn3C3CCC3)c2)nc1 [Compound 70, 3-(2-Cyclobutyl-2H-pyrazol-3-yl)-N-((S)-2-hydroxy-1-methyl-ethyl)-5-(5-methyl-pyridin-2-yl)-benzamide]"
–,~21.4,"Cc1ccc(-c2cc(C(=O)NCc3ccc(C)nn3)cc(-n3nccc3CC(C)C)c2)nc1 [Compound 101, 3-(5-Isobutyl-pyrazol-1-yl)-N-(6-methyl-pyridazin-3-ylmethyl)-5-(5-methyl-pyridin-2-yl)-benzamide]"
